# Data taken from patent publication US8334304B2, “Aminosulfonyl substituted 4-(aminomethyl)-piperidine benzamides as 5HT4-antagonists” (Janssen Pharmaceutica N.V., priority 2003, dated 2012).
# Where a name gives a salt, the structure may show the parent alone. Read-outs that look alike come from different tables or passages of the source.
# Legend:
# [1] = target: T1, h5-HT4b (Homo sapiens, UniProt Q13639); assay: 5HT4 antagonism: [3H]GR113808 binding to membranes of h5-HT4b-HEK 293 clone 9 cells; settings: 30 min at 25° C.
# T1 construct: expressed in transfected cells; host or cells: HEK 293 (clone 9), membrane preparation
# T1 sequence (Q13639 whole entry): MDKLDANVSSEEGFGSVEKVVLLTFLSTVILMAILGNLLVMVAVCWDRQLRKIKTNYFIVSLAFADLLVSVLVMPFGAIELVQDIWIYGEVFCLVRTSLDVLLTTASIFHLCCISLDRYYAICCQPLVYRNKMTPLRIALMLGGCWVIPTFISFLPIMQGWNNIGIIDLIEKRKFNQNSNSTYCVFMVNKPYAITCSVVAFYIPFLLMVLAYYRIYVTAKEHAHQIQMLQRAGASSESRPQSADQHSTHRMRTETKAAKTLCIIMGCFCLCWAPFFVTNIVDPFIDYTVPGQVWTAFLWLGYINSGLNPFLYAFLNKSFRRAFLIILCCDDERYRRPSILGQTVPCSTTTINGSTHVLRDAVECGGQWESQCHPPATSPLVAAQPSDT
# Method: The cells were then scraped from the plates and suspended in 50 mM Tris-HCl buffer, pH 7.4 and harvested by centrifugation at 23,500 rpm for 10 minutes. The pellet was resuspended in 5 mM Tris-HCl, pH 7.4 and homogenized with an Ultra Turrax homogenizer. The membranes were collected by centrifugation at 30,000 rpm for 20 min, resuspended in 50 mM Tris-HCl pH 7.4 and stored at −80° C. […] 50 μl of 10% DMSO was added for total binding. 50 μl of 1 μM of (+)-trans-(1-butyl-3-hydroxy-4-piperidinyl)methyl 8-amino-7-chloro-2,3-dihydro-1,4-benzodioxin-5-carboxylate (a proprietary 5HT4 agonist of Janssen Pharmaceutica) was added for determination of non-specific binding. The [^3H]GR113808 assay buffer was 50 mM HEPES-NaOH, pH 7.4. The mixtures were incubated for 30 min at 25° C. The incubation was terminated by filtration over a Unifilter 96 GF/B presoaked in 0.1% polyethylenimine, followed by six washing steps with 50 mM HEPES-NaOH, pH 7.4.
# [2] = Metabolic stability: incubation with liver microsomes and NADPH-generating system, LC-MS; format: in vitro ADME; settings: compound 5 μM, microsomes 1 mg/ml, 37 degrees Celsius
# Method: Sub-cellular tissue preparations were made according to Gorrod et al. (Xenobiotica 5: 453-462, 1975) by centrifugal separation after mechanical homogenization of tissue. Liver tissue was rinsed in ice-cold 0.1 M Tris-HCl (pH 7.4) buffer to wash excess blood. Tissue was then blotted dry, weighed and chopped coarsely using surgical scissors. The tissue pieces were homogenized in 3 volumes of ice-cold 0.1 M phosphate buffer (pH 7.4).
# Tissue homogenates were centrifuged at 9000×g for 20 minutes at 4° C. The resulting supernatant was stored at −80° C. and is designated ‘S9’.
# The S9 fraction can be further centrifuged at 100.000×g for 60 minutes (4° C.). The resulting supernatant was carefully aspirated, aliquoted and designated ‘cytosol’. The pellet was re-suspended in 0.1 M phosphate buffer (pH 7.4) in a final volume of 1 ml per 0.5 g original tissue weight and designated ‘microsomes’.
# All sub-cellular fractions were aliquoted, immediately frozen in liquid nitrogen and stored at −80° C. until use.
# Control samples contained the same material but the microsomes were replaced by heat inactivated (10 minutes at 95 degrees Celsius) microsomes. Recovery of the compounds in the control samples was always 100%.
# The mixtures were preincubated for 5 minutes at 37 degrees Celsius. The reaction was started at time point zero (t=0) by addition of 0.8 mM NADP and the samples were incubated for 60 minutes (t=60). The reaction was terminated by the addition of 2 volumes of DMSO. Then the samples were centrifuged for 10 minutes at 900×g and the supernatants were stored at room temperature for no longer as 24 hours before analysis. All incubations were performed in duplo. Analysis of the supernatants was performed with LC-MS analysis. Elution of the samples was performed on a Xterra MS C18 (50×4.6 mm, 5 μm, Waters, US). An Alliance 2790 (Supplier: Waters, US) HPLC system was used. Elution was with buffer A (25 mM ammoniumacetate (pH 5.2) in H2O/acetonitrile (95/5)), solvent B being acetonitrile and solvent C methanol at a flow rate of 2.4 ml/min. The gradient employed was increasing the organic phase concentration from 0% over 50% B and 50% C in 5 min up to 100% B in 1 minute in a linear fashion and organic phase concentration was kept stationary for an additional 1.5 minutes. Total injection volume of the samples was 25 μl.
# A Quatro triple quadrupole mass spectrometer fitted with and ESP source was used as detector. The source and the desolvation temperature were set at 120 and 350° C. respectively and nitrogen was used as nebuliser and drying gas. Data were acquired in positive scan mode (single ion reaction). Cone voltage was set at 10 V and the dwell time was 1 second.
# Metabolic stability was expressed as % metabolism of the compound after 60 minutes (equation given as example) of incubation in the presence of active microsomes (E(act))
# [3] = displacement of 0.1 nM [3H]GR113808, membranes of h5-HT4b-HEK 293 cells, read-out: pIC50 (converted)
SMILES,melting point,"IC50 [1, 3]",% metabolised compound after 60 minutes [2],"IC50 ([1]; pIC50, displacement of 0.1 nM [3H]GR113808, membranes of h5-HT4b-HEK 293 cells)"
Cc1ccc(C(=O)NC[C@@H]2CCN(CCCC(=O)NS(C)(=O)=O)C[C@H]2O)c2c1OCCCO2 (as salt: hydrochloride) [Compound 27],142 °C,–,–,–
Nc1cc2c(c(C(=O)NC[C@@H]3CCN(CCCS(N)(=O)=O)C[C@H]3O)c1)OCCCO2 (relative stereo) [Compound 8],186 °C,50.1 nM,–,–
Cc1cc2c(c(C(=O)NC[C@@H]3CCN(CCCS(=O)(=O)NC(C)C)C[C@H]3O)c1)OCCCO2 (relative stereo) [Compound 11],–,3.98 nM,–,–
Cc1cc2c(c(C(=O)NC[C@@H]3CCN(CCCS(=O)(=O)Nc4ccccc4)C[C@H]3O)c1)OCCCO2 (relative stereo) [Compound 12],–,1.62 nM,–,–
NS(=O)(=O)CCCCN1CC[C@@H](CNC(=O)c2cc(Cl)c(Cl)c3c2OCCCO3)[C@H](O)C1 (relative stereo) [Compound 30],–,1.7 nM,12%,–
CNS(=O)(=O)CCCN1CC[C@@H](CNC(=O)c2cc(Cl)cc3c2OCCCO3)[C@H](O)C1 (relative stereo) [Compound 33],–,2.19 nM,–,–
CO[C@@H]1CN(CCCCS(N)(=O)=O)CC[C@H]1CNC(=O)c1cc(F)cc2c1OCCCO2 (relative stereo) [Compound 44],–,3.72 nM,27%,–
COc1ccc(C(=O)NCC2CCN(CCCCS(N)(=O)=O)CC2OC)c2c1OCCO2 (stereo not shown) [Compound 6],–,28.8 nM,9%,–
NS(=O)(=O)CCCCN1CC[C@@H](CNC(=O)c2cc(F)cc3c2OCCO3)[C@H](O)C1 [Compound 7],–,1.86 nM,3%,–
Cc1ccc(C(=O)NCC2CCN(CCCS(=O)(=O)Nc3ccccc3)CC2O)c2c1OCCCO2 (stereo not shown) [Compound 10],–,1.29 nM,–,–
Cc1ccc(C(=O)NCC2CCN(CCCS(=O)(=O)NC(C)C)CC2O)c2c1OCCCO2 (stereo not shown) [Compound 13],–,3.39 nM,–,–
CC(C)NS(=O)(=O)CCCN1CCC(CNC(=O)c2cc(Cl)cc3c2OCCCO3)C(O)C1 (stereo not shown) [Compound 14],–,1.95 nM,–,–
CS(=O)(=O)NC(=O)CCCN1CC[C@@H](CNC(=O)c2cc(Cl)cc3c2OCCCO3)[C@H](O)C1 [Compound 15],110 °C,35.5 nM,36%,–
O=C(NCC1CCN(CCCS(=O)(=O)Nc2ccccc2)CC1O)c1cc(Cl)cc2c1OCCCO2 (stereo not shown) [Compound 17],–,1.78 nM,–,–
Cc1ccc(C(=O)NCC2CCN(CCCS(N)(=O)=O)CC2O)c2c1OCCCO2 (stereo not shown) [Compound 18],–,5.25 nM,7%,–
Cc1cc2c(c(C(=O)NCC3CCN(CCCS(N)(=O)=O)CC3O)c1)OCCCO2 (stereo not shown) [Compound 19],–,3.39 nM,14%,–
Cc1cc2c(c(C(=O)NCC3CCN(CCCCS(N)(=O)=O)CC3O)c1)OCCCO2 (stereo not shown) [Compound 20],–,4.68 nM,2%,–
NS(=O)(=O)CCCN1CCC(CNC(=O)c2cc(Cl)cc3c2OCCCO3)C(O)C1 (stereo not shown) [Compound 21],–,3.02 nM,21%,–
NS(=O)(=O)CCN1CC[C@@H](CNC(=O)c2cc(Cl)cc3c2OCCCO3)[C@H](O)C1 [Compound 22],162 °C,–,28.5%,5.37 nM

SMILES,melting point,"IC50 [1, 3]",% metabolised compound after 60 minutes [2],"IC50 ([1]; pIC50, displacement of 0.1 nM [3H]GR113808, membranes of h5-HT4b-HEK 293 cells)"
Cc1ccc(C(=O)NC[C@@H]2CCN(CCS(N)(=O)=O)C[C@H]2O)c2c1OCCCO2 [Compound 23],–,5.75 nM,8%,–
CNS(=O)(=O)CCCN1CCC(CNC(=O)c2cc(C)cc3c2OCCCO3)C(O)C1 (stereo not shown) [Compound 24],–,2.88 nM,53%,–
Cc1cc2c(c(C(=O)NC[C@@H]3CCN(CCS(N)(=O)=O)C[C@H]3O)c1)OCCCO2 [Compound 25],–,8.51 nM,8.5%,–
NS(=O)(=O)CCCCN1CC[C@@H](CNC(=O)c2cc(Cl)cc3c2OCCCO3)[C@H](O)C1 [Compound 26],–,0.676 nM,13%,–
Cc1ccc(C(=O)NC[C@@H]2CCN(CCCC(=O)NS(C)(=O)=O)C[C@H]2O)c2c1OCCCO2 [Compound 27],–,12 nM,5%,–
NS(=O)(=O)CCCCN1CCC(CNC(=O)c2cc(Cl)c(Br)c3c2OCCCO3)C(O)C1 (stereo not shown) [Compound 31],–,0.891 nM,18%,–
COc1ccc(C(=O)NC[C@@H]2CCN(CCCCS(N)(=O)=O)C[C@H]2O)c2c1OCCCO2 [Compound 32],–,3.63 nM,0%,–
CNS(=O)(=O)CCCN1CC[C@@H](CNC(=O)c2ccc(C)c3c2OCCCO3)[C@H](O)C1 [Compound 34],–,1.15 nM,–,–
NS(=O)(=O)CCCCN1CC[C@@H](CNC(=O)c2cc(F)cc3c2OCCCO3)[C@H](O)C1 [Compound 35],–,0.407 nM,15%,–
Cc1cc2c(c(C(=O)NCC3CCN(CCCCS(N)(=O)=O)CC3O)c1)OCCCO2 (stereo not shown) [Compound 38],–,11.2 nM,3%,–
NS(=O)(=O)CCCCN1CCC(CNC(=O)c2cc(F)cc3c2OCCCO3)C(O)C1 (stereo not shown) [Compound 39],–,12.6 nM,2%,–
COc1ccc(C(=O)NCC2CCN(CCCCS(N)(=O)=O)CC2O)c2c1OCCCO2 (stereo not shown) [Compound 40],–,158 nM,0%,–
COC1CN(CCCS(N)(=O)=O)CCC1CNC(=O)c1cc(C#N)cc2c1OCCCO2 (stereo not shown) [Compound 41],–,56.2 nM,–,–
COC1CN(CCCCS(N)(=O)=O)CCC1CNC(=O)c1cc(Cl)c(Cl)c2c1OCCCO2 (stereo not shown) [Compound 42],–,1.51 nM,–,–
COC1CN(CCCCS(N)(=O)=O)CCC1CNC(=O)c1cc(Cl)c(Br)c2c1OCCCO2 (stereo not shown) [Compound 43],–,1.7 nM,–,–
COC1CN(CCCCS(N)(=O)=O)CCC1CNC(=O)c1cc(Cl)cc2c1OCCCO2 (stereo not shown) [Compound 45],–,1.38 nM,–,–
COC1CN(CCCS(N)(=O)=O)CCC1CNC(=O)c1cc(F)cc2c1OCCCO2 (stereo not shown) [Compound 46],–,4.17 nM,–,–
COc1ccc(C(=O)NCC2(O)CCN(CCCCS(N)(=O)=O)CC2)c2c1OCCCO2 [Compound 47],–,100 nM,0%,–
Cc1cc2c(c(C(=O)NCC3(O)CCN(CCCCS(N)(=O)=O)CC3)c1)OCCCO2 [Compound 48],–,20.9 nM,6%,–
